Source: patent US20250099512A1, “USE OF BACTEROIDES FRAGILIS IN IMPROVEMENT AND TREATMENT OF DIARRHEA” (priority 2022, published 2025)
Where a name gives a salt, the structure may show the parent alone.

Columns and labels:
[1] = test system: mice with Escherichia coli-induced diarrhea; experiment: Effect on mice with Escherichia coli-induced diarrhea (Example 6); assay type: in vivo; details: positive control, berberine hydrochloride 0.01 g/mL i.g. QD*7 days; Escherichia coli i.p. model
Protocol: Escherichia coli preserved on a slant was inoculated on a nutrient agar plate and cultured at 37° C. for 24 h. Several colonies were then picked, inoculated into MH broth, followed by another 24 hours of culture at 37° C. The culture was then diluted with sterilized normal saline and subjected to turbidity adjustment using a 0.5 Mcfarland turbidimetric tube, thus achieving a bacterial content of 3×10^8 CFU/mL.
Mice weighing about 20 g were selected, and each mouse was intraperitoneally injected with 0.2 mL of the Escherichia coli bacteria solution with a bacterial content of 3×10^8 CFU/mL for diarrhea induction. A positive control group received a 0.01 g/mL aqueous berberine hydrochloride solution administered intragastrically. The experimental grouping and procedures were the same as in Example 3. The mice were continuously observed for 5 h, and the diarrhea indices of the mice were recorded.

[2] = test system: Cryptosporidium cuniculus; experiment: Effect on diarrhea in rabbits infected with Cryptosporidium cuniculus, oocysts in stools (Example 12); assay type: in vivo, New Zealand white rabbits
Description: A parasite-associated diarrhea model was constructed by intragastric administration of Cryptosporidium cuniculus oocysts (extracted from a single positive stool sample from a rabbit farm in Jilin) in New Zealand white rabbits. Subsequently, the Bacteroides fragilis live bacteria solution, inactivated bacteria powder and lysate solution (prepared in Example 2) were each used for treatment. The therapeutic effects of the Bacteroides fragilis live bacteria solution, inactivated bacteria powder and lysate solution were observed.
New Zealand white rabbits aged 35 days were selected and randomly divided into the following 6 groups: a blank group (group 1), a model group (group 2), a positive control group (nitazoxanide) (group 3), a Bacteroides fragilis inactivated bacteria powder group (group 4), a Bacteroides fragilis lysate solution group (group 5), and a Bacteroides fragilis live bacteria solution group (group 6), with 8 rabbits in each group. The New Zealand white rabbits in groups 2 to 6 were intragastrically inoculated with 1.5×10^4 Cryptosporidium cuniculus oocysts, and the blank group was intragastrically given normal saline. […] The stools were collected to prepare a stool suspension, and structures with oocysts were observed under a microscope, indicating successful modeling. Therefore, treatment could be carried out. The blank group was given normal saline, and the treatment groups were subjected to drug administration. The treatment was carried out twice daily for 7 consecutive days. The New Zealand white rabbits were observed daily for diarrhea condition. On day 1 of the treatment and at the end of the treatment, the stool samples were collected, and the number of oocysts was observed under a microscope.

With COc1ccc2cc3[n+](cc2c1OC)CCc1cc2c(cc1-3)OCO2 [berberine hydrochloride] the Diarrhea index [1] was 1.25 ± 0.13.
In the case of CC(=O)Oc1ccccc1C(=O)Nc1ncc([N+](=O)[O-])s1 [nitazoxanide], the “Number of oocysts in stools (×10^6 oocysts/rabbit, mean ± SD)” value (from here on “Number … (×10^6 oocysts/rabbit, mean ± SD)”) ([2]; D 1 of administration, i.g. Bid*7 days, nitazoxanide 10 mg/kg, Bacteroides fragilis 1 × 10^8 cells/mL) is reported as 1.8 ± 0.6 ×10^6 oocysts/rabbit, the “Number … (×10^6 oocysts/rabbit, mean ± SD)” value ([2]; D 2 of administration, doses as Table 23) is reported as 3.2 ± 1.5 ×10^6 oocysts/rabbit and the “Number … (×10^6 oocysts/rabbit, mean ± SD)” value ([2]; D 3 of administration, doses as Table 23) is reported as 2.8 ± 0.9 ×10^6 oocysts/rabbit. The “Number … (×10^6 oocysts/rabbit, mean ± SD)” value ([2]; D 4 of administration, doses as Table 23) was 2.2 ± 0.2 ×10^6 oocysts/rabbit, the “Number … (×10^6 oocysts/rabbit, mean ± SD)” value ([2]; D 5 of administration, doses as Table 23) was 1.5 ± 1.1 ×10^6 oocysts/rabbit and the “Number … (×10^6 oocysts/rabbit, mean ± SD)” value ([2]; D 6 of administration, doses as Table 23) was 1.3 ± 0.1 ×10^6 oocysts/rabbit. For the same molecule, the “Number … (×10^6 oocysts/rabbit, mean ± SD)” value ([2]; D 7 of administration, doses as Table 23) was 0.6 ± 0.2 ×10^6 oocysts/rabbit and the “total number of oocysts in the stools of each New Zealand rabbit during the treatment period” value ([2]; FIG. 5, P<0.0001, doses as Table 23) was “significantly lower than that in the model group”.
